This is an account of results in patent US6034097A, “Isoquinolines useful as analgesics” (Astra AB, priority 1996, dated 2000).

The target of data set [1] is T1, μ receptors (Rattus norvegicus, UniProt P33535).
T1 construct: the brains minus cerebellum were removed and place in ice-cold saline solution and then homogenized; from tissue; host or cells: rat brain minus cerebellum, membrane homogenate
Kind of data set: Radioligand binding assay, μ receptor, (3H)-DAMGO, rat brain membranes. The conditions noted are these: Ki from IC50 by Cheng and Prusoff. How it is done: (§1) PBQ (phenyl-.rho.-benzoquinone) induced writhing in mice is an assessment of both central and peripheral analgesia. For experimental protocol see Sigmund et al., Proc. Soc. Exp. Biol. Med., 15, p. 729(1957) which is incorporated herein by reference. Central analgesia is determined by the inhibition of a hot-plate response in mice. For experimental protocol see G. Woolfe and A. Macdonald, J. Pharmacol. Exp. Ther., 80, p.300 (1944) which is incorporated herein by reference. Assays measuring opioid receptor binding affinities for μ and δ receptors as well as GPI and MVD assays are determined through experimental protocol set out in Schiller et al., Biophys. Res. Commun., 85, p.1322 (1975) incorporated herein by reference.
(§2) Male Sprague-Dawley rats weighing between 350-450 g were sacrificed by inhalation of CO2. The rats were decapitated and the brains minus cerebellum were removed and place in ice-cold saline solution and then homogenized in ice-cold 50 mM Tris buffer pH 7.4 (10 ml/brain). The membranes were centrifuged at 14000 rpm for 30 min. at 4° C. The pellets were re-suspended in approximately 6 ml/brain of ice-cold Tris buffer 50 mM pH 7.4 and stored at -78° C. until ready for use. Protein quantification of the brain homogenate was conducted according to protein assay kit purchased (Bio-Rad).
(^3 H)-DAMGO and (^3 H) DAGLE were used as radioligands for the μ and δ receptors, respectively. Radioligand 50 μl, membranes 100 μl and serially diluted test compound were incubated for 1 hr at 22° C. Non specific binding was determined using 500 fold excess of unlabeled ligand in the presence of tracer and membranes. Free ligand was separated from bound by filtration through Whatman GF/B paper (presoaked in polyethylenimine 1% aqueous solution) and rinsing with ice-cold 50 mM Tris pH 7.4 using a Brandel cell harvester. The filters were dried and radioactivity was counted in a 24 well microplate in the presence of […] scintillant per well. Radioactivity was measured using a Wallac 1450 Microbeta counter.
(§3) Ki's for the various compounds were determined from the IC50 according to the Cheng and Prusoff equation.

Another data set addresses T2, δ receptors (Rattus norvegicus, UniProt P33533).
T2 construct: the brains minus cerebellum were removed and place in ice-cold saline solution and then homogenized; from tissue; host or cells: rat brain minus cerebellum, membrane homogenate
Kind of data set: Radioligand binding assay, δ receptor, (3H) DAGLE, rat brain membranes. The conditions noted are these: Ki from IC50 by Cheng and Prusoff. The protocol:
as §1, §2
(^3 H)-DAMGO and (^3 H) DAGLE were used as radioligands for the μ and δ receptors, respectively. Radioligand 50 μl, membranes 100 μl and serially diluted test compound were incubated for 1 hr at 22° C. Non specific binding was determined using 500 fold excess of unlabeled ligand in the presence of tracer and membranes. […] The filters were dried and radioactivity was counted in a 24 well microplate in the presence of […] scintillant per well. Radioactivity was measured using a Wallac 1450 Microbeta counter.
as §3

The next data set deals with T3, κ receptor (Rattus norvegicus, UniProt P34975).
T3 construct: from tissue
Description: Radioligand binding assay, κ receptor (Table 1). The conditions noted are these: binding inhibition constant.

Data set [2] has as its system μ receptors. Description: Guinea Pig Ileum (GPI) assay, longitudinal muscle preparation. It counts as cell-based. How it is done: (§4) The opioid activity of the peptides was assessed in vitro using the guinea pig ileum (GPI) longitudinal muscle preparation and their antinociceptive activity was determined in vivo in PBQ induced writhing models (peripheral activity) and in the hot-plate test (central activity) in rodents. […] Peripheral analgesia is shown by a high potency in the writhing test coupled with a low potency in the hot-plate test.
as §1
The activity of the peptide compounds on μ receptors was determined using the Guinea Pig Ileum (GPI) assay (longitudinal muscle preparation) according to the procedures described in Schiller et al., Biophys. Res. Commun., 85, p.1322 (1975).

The next data set deals with CD #1 male mice. Description: PBQ (phenylquinone) induced writhing assay in mice. It counts as in vivo. To be noted: compound by subcutaneous route, dose inducing 50% reduction in number of writhes vs control. The protocol:
The term "ED50 " as shown in table 1 for the PBQ writhing assays is defined as the dose of drug which induces a 50% reduction in the number of writhes observed compared to the control. The term "ED50 " used in the hot-plate assays is defined as the dose of drug required to increase the latency of response 2-fold compared to controls and was determined by parallel-line probit analysis.
as §4, §1
The test was performed on CD #1 male mice weighing between 18 and 22 g. The mice were weighed and marked. They were injected, by intra-peritoneal route, with 0.3 ml/20 g by weight with a solution of phenylquinone at 0.02%. The contortions which appeared during a 15 minute time period following the injection were counted. The phenylquinone was injected at time intervals of 5, 20 or 60 minutes after administration of the compound (or medium, or standard) by subcutaneous route.
The 0.02% phenylquinone solution was prepared in the following fashion. […]
For orientation: Writhing tests count abdominal constrictions after an irritant is injected.

Data set [3] can be described thus: In vitro stability in rat whole blood (RWB) at 37° C. It counts as in vitro ADME. The protocol:
(§5) In vitro stability of the compounds of the invention in rat whole blood (RWB) at 37° C. and in kidney brush border protease (KBBP) at 37° C.
The compound was initially dissolved in water or in 10% methyl sulfoxide (DMSO)/water to make a stock solution of 10 mg/ml.
The stock solution was added to 15 ml of freshly harvested rat whole blood and incubated at 37° C.
Blanks were prepared without spiking with compounds in rat whole blood.
Aliquots were then taken at specific time intervals, centrifuged, and a fraction of the supernatant was extracted with acetonitrile or with a solution of acetonitrile and 10% acetic acid.
The solvent(s) was(were) removed by evaporation. The resulting residue was analyzed by HPLC.

Data set [4] has as its system kidney brush border protease (KBBP). Description: In vitro stability in kidney brush border protease (KBBP) at 37° C. The format is in vitro ADME. The conditions noted are these: PBS pH 7.4, 37° C.; for Metabolites in KBBP: up to 1440 minutes. How it is done: as §5
1.0 mg of the compounds were dissolved in 1 ml PBS pH 7.4 and 500 µL of proteases (1.14 mg of protein/ml) were added.
An initial aliquot was taken at time 0, and the reaction was immediately stopped by placing the sample in a bath of boiling water for 2 minutes (the other time intervals were 5, 15, 30, 60, 120, 1440 minutes).
Blank samples without compounds were also prepared.
The aliquoted samples were filtered on a micron 0.45 filter and the resulting sample were analyzed by HPLC.

Structures can show the parent of a compound that is named as a salt.

T2 sequence (P33533 whole entry): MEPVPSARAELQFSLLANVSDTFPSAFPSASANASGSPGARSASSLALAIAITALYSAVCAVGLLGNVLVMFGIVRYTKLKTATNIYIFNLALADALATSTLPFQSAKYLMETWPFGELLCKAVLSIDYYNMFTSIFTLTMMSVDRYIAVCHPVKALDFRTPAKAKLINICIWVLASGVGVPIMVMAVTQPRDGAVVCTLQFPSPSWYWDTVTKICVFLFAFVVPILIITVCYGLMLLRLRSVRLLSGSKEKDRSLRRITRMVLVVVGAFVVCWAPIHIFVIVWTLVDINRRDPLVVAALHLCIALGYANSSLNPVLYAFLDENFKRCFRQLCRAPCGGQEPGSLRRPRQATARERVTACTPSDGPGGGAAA
T1 sequence (P33535 whole entry): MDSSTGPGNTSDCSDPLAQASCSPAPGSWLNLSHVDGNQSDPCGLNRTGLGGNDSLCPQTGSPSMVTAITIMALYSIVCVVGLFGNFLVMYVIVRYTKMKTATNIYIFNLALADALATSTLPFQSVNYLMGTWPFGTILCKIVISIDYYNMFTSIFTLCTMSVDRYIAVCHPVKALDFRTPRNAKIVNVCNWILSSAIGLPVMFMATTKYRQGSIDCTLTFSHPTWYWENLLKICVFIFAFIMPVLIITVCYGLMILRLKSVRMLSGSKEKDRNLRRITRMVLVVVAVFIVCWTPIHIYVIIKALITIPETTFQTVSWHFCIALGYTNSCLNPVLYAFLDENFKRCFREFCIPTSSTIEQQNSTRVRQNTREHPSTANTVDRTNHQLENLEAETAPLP
T3 sequence (P34975 whole entry): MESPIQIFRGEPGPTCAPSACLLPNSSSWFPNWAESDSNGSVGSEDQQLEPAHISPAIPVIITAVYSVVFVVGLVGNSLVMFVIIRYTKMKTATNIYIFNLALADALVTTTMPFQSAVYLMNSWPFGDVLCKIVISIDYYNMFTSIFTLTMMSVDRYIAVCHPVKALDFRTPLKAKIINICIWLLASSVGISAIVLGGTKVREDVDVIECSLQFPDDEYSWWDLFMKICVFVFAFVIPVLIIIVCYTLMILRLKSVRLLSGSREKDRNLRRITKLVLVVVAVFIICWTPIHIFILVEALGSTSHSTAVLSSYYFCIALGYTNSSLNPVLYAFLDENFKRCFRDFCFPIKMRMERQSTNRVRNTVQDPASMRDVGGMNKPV

Take `Cc1cc(O)cc(C)c1C[C@H](N)C(=O)N1Cc2ccccc2C[C@H]1C(=O)NCC(O)Cc1ccccc1.O=C(O)C(F)(F)F` (stereo partly drawn) [4B, 2-S-(2-Amino-3-(4-hydroxy-2,6-dimethyl-phenyl)-propionyl)-1,2,3,4-tetrahydro-isoquinoline-3-S-carboxylic acid (2-hydroxy-3-phenyl-propyl)amide trifluoroacetic salt]: at μ receptors [1], the Ki (commonly a dissociation constant, usually derived from enzyme kinetics or from competition with a known ligand) was 0.7 ± 0.27 nM. On δ receptors, this molecule came in with a Ki of 0.1 ± 0.02 nM. Affinity at κ receptor was put at a Ki of 20.6 ± 0.5 nM. Also, 13.8 nM corresponded to half-maximal inhibition with μ receptors [2] (IC50). Besides, the “ED50 PBQ writhing” value with CD #1 male mice turned out to be 16.6 mg/kg. Further, in data set [3], the “Metabolites in RWB” value is on record as “none detected” and the “half life in RWB” value was above 5.32 h. Besides, in data set [4], the “half life in KBBP” value is recorded as above 24 h and the “Metabolites in KBBP” value was “none detected”.

As for `Cc1cc(O)cc(C)c1CC(NC(=N)N)C(=O)N1Cc2ccccc2C[C@H]1C(=O)NC[C@H](O)Cc1ccccc1` (some centres unmarked) [compound #3, 2-(2-Guanidino-3-(4-hydroxy-2,6-dimethyl-phenyl)-propionyl)-1,2,3,4-tetrahydro-isoquinoline-3-S-carboxylic acid (2-R-hydroxy-3-phenyl-propyl)-amide ditrifloroacetic salt], the values for the Ki on μ receptors [1] (listed as #3), on δ receptors and on κ receptor (listed as #3) were 2.03 ± 0.37 nM, 0.56 ± 0.09 nM and 277 ± 13.6 nM, respectively.

For the molecule `Cc1cc(O)cc(C)c1CC(NC(=N)N)C(=O)N1Cc2ccccc2C[C@H]1C(=O)NC[C@H](O)Cc1ccccc1.O=C(O)C(F)(F)F.O=C(O)C(F)(F)F` (some centres unmarked) [compound #3A, 2-(2-Guanidino-3-(4-hydroxy-2,6-dimethyl-phenyl)-propionyl)-1,2,3,4-tetrahydro-isoquinoline-3-S-carboxylic acid (2-R-hydroxy-3-phenyl-propyl)-amide ditrifloroacetic salt], the Ki on μ receptors [1] (listed as #3A) worked out at 2.94 ± 0.73 nM; on κ receptor (listed as #3A) it was 952 ± 122 nM. Moreover, the “ED50 PBQ writhing” value in the data set with CD #1 male mice turned out to be 3.8 mg/kg.

Take `Cc1cc(O)cc(C)c1CC(NC(=N)N)C(=O)N1Cc2ccccc2C[C@H]1C(=O)NC[C@H](O)Cc1ccccc1` (some centres unmarked) [compound #3B, 2-(2-Guanidino-3-(4-hydroxy-2,6-dimethyl-phenyl)-propionyl)-1,2,3,4-tetrahydro-isoquinoline-3-S-carboxylic acid (2-R-hydroxy-3-phenyl-propyl)-amide ditrifloroacetic salt]: the figures for the Ki on μ receptors [1] (listed as #3B) and at κ receptor (listed as #3B) were 0.5 nM and 164 ± 17.5 nM, respectively. Further, the IC50 (commonly the concentration needed to halve the response being measured) in the data set with μ receptors [2] was 7.3 nM.

For the molecule `Cc1cc(O)cc(C)c1C[C@H](N)C(=O)N1Cc2ccccc2C[C@H]1C(=O)NCC(O)Cc1ccccc1.O=C(O)C(F)(F)F` (stereo partly drawn) [compound #4A, 2-S-(2-Amino-3-(4-hydroxy-2,6-dimethyl-phenyl)-propionyl)-1,2,3,4-tetrahydro-isoquinoline-3-S-carboxylic acid (2-hydroxy-3-phenyl-propyl)amide trifluoroacetic salt], in data set [3], the “Metabolites in RWB” value is “none detected” and the “half life in RWB” value is above 2.1 h. In data set [4], the “half life in KBBP” value is listed as above 24 h and the “Metabolites in KBBP” value was 1 detected after.

Take `Cc1cc(O)cc(C)c1CC(N)C(=O)N1Cc2ccccc2C[C@H]1C(=O)NCCCc1ccccc1.O=C(O)C(F)(F)F` (some centres unmarked) [compound #5A, 2-(2-Amino-3-(4-Hydroxy-2,6-dimethyl-phenyl)-propionyl)-1,2,3,4-tetrahydro-isoquinoline-3-S-carboxylic acid (3-phenyl-propyl)amide trifluoroacetic salt]: in data set [3], the “Metabolites in RWB” value is “none detected” and the “half life in RWB” value is listed as above 24 h. In data set [4], the “half life in KBBP” value was above 24 h and the “Metabolites in KBBP” value is reported as “none detected”.

As for `Cc1cc(O)cc(C)c1CC(N)C(=O)N1Cc2ccccc2CC1C(=O)NCCCc1ccccc1.O=C(O)C(F)(F)F` (centres unmarked) [compound #5B, 2-(2-Amino-3-(4-Hydroxy-2,6-dimethyl-phenyl)-propionyl)-1,2,3,4-tetrahydro-isoquinoline-3-carboxylic acid (3-phenyl-propyl)amide trifluoroacetic salt], in data set [3], the “Metabolites in RWB” value is “none detected” and the “half life in RWB” value is recorded as above 20 h. Also, in data set [4], the “half life in KBBP” value is listed as above 24 h and the “Metabolites in KBBP” value is given as “none detected”.

Regarding `Cc1cc(O)cc(C)c1CC(N)C(=O)N1Cc2ccccc2C[C@H]1C(=O)NCCCc1ccccc1.O=C(O)C(F)(F)F` (some centres unmarked) [compound #6A, 2-(2-Amino-3-(4-Hydroxy-2,6-dimethyl-phenyl)-propionyl)-1,2,3,4-tetrahydro-isoquinoline-3-S-carboxylic acid (3-phenyl-propyl)amide trifluoroacetic salt], the Ki at μ receptors [1] amounted to 0.11 ± 0.02 nM; on δ receptors, 0.84 ± 0.08 nM; at κ receptor, 49.6 ± 8.7 nM. Further, the IC50 in the data set with μ receptors [2] stood at 5.1 nM. For the same molecule, in the data set on CD #1 male mice, the “ED50 PBQ writhing” value was 2.4 mg/kg.
